Reference: the supplement of paper PMC10307832

Columns and labels:
Assay in all cases: relative viability (nuclei count vs DMSO), 5 days (fraction); higher = more cells survive
[1] = compound: C[C@]12O[C@H](C[C@]1(O)CO)n1c3ccccc3c3c4c(c5c6ccccc6n2c5c31)CNC4=O [Lestaurtinib] + CCNC(=O)c1noc(-c2cc(C(C)C)c(O)cc2O)c1-c1ccc(CN2CCOCC2)cc1 [Luminespib] (partner 0.01 µM)
Summary of the method: (§1)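 Dosing by pin tool came one day after lung cancer cell lines were seeded in 1536-well plates, using either one drug or a fixed anchor-drug dose plus five library-drug doses (not always all listed) in √10 steps. After 5 days, nuclei were counted on 4× images. Relative viability is treated-well nuclei count divided by vehicle-well nuclei count, and values are medians of duplicate plates.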

[2] = compound: C[C@]12O[C@H](C[C@]1(O)CO)n1c3ccccc3c3c4c(c5c6ccccc6n2c5c31)CNC4=O [Lestaurtinib] + Nc1nc2[nH]cc(CCc3ccc(C(=O)N[C@@H](CCC(=O)O)C(=O)O)cc3)c2c(=O)[nH]1 [Pemetrexed] (partner 0.2 µM)
Summary of the method: as §1

[3] = compound: C[C@]12O[C@H](C[C@]1(O)CO)n1c3ccccc3c3c4c(c5c6ccccc6n2c5c31)CNC4=O [Lestaurtinib] + COc1cccc2cc(-c3nc([C@H]4CC[C@H](C(=O)O)CC4)n4ncnc(N)c34)[nH]c12 [OSI-027] (partner 0.5 µM)
Summary of the method: as §1

[4] = compound: C1=CC(=CC=C1C2=CC(=C(S2)NC(=O)N)C(=O)N)F [TPCA-1] + C[C@]1(O)C[C@@H](c2nc(-c3ccc4ccc(-c5ccccc5)nc4c3)c3c(N)nccn32)C1 [Linsitinib] (partner 1 µM)
Summary of the method: as §1

Cell Line | relative viability ([1]; first compound 0.005 µM) | relative viability ([1]; first compound 0.01581 µM) | relative viability ([1]; first compound 0.05 µM) | relative viability ([1]; first compound 0.1581 µM) | relative viability ([1]; first compound 0.5 µM) | relative viability ([2]; first compound 0.005 µM) | relative viability ([2]; first compound 0.01581 µM) | relative viability ([2]; first compound 0.05 µM) | relative viability ([2]; first compound 0.1581 µM) | relative viability ([2]; first compound 0.5 µM) | relative viability ([3]; first compound 0.005 µM) | relative viability ([3]; first compound 0.01581 µM) | relative viability ([3]; first compound 0.05 µM) | relative viability ([3]; first compound 0.1581 µM) | relative viability ([3]; first compound 0.5 µM) | relative viability ([4]; first compound 0.04 µM) | relative viability ([4]; first compound 0.1265 µM) | relative viability ([4]; first compound 0.4 µM) | relative viability ([4]; first compound 1.265 µM) | relative viability ([4]; first compound 4 µM)
NCI-H2087 | 0.158 | 0.253 | 0.163 | 0.148 | 0.165 | 0.708 | 0.688 | 0.675 | 0.632 | 0.332 | 0.627 | 0.634 | 0.531 | 0.408 | 0.338 | 0.989 | 0.938 | 1.03 | 0.836 | 0.553
NCI-H2126 | 0.944 | 0.891 | 0.776 | 0.817 | 0.538 | 0.757 | 0.685 | 0.66 | 0.666 | 0.476 | 0.6 | 0.844 | 0.665 | 0.658 | 0.539 | 0.752 | 0.657 | 0.709 | 0.724 | 0.595
NCI-H2228 | 0.185 | 0.144 | 0.137 | 0.123 | 0.109 | 0.381 | 0.383 | 0.299 | 0.147 | 0.148 | 0.528 | 0.627 | 0.349 | 0.294 | 0.104 | 0.789 | 0.723 | 0.627 | 0.825 | 0.455
NCI-H2347 | 0.501 | 0.661 | 0.404 | 0.246 | 0.297 | 0.443 | 0.43 | 0.432 | 0.44 | 0.404 | 0.402 | 0.423 | 0.409 | 0.33 | 0.367 | 1.14 | 1.02 | 0.899 | 0.931 | 0.903
NCI-H2405 | 0.747 | 0.631 | 0.585 | 0.548 | 0.262 | 1.01 | 1.25 | 1.03 | 0.887 | 0.374 | 0.647 | 0.685 | 0.59 | 0.487 | 0.414 | 1.05 | 0.806 | 0.988 | – | 0.914
NCI-H3122 | 0.114 | 0.116 | 0.115 | 0.0939 | 0.088 | 0.227 | 0.205 | 0.193 | 0.216 | 0.187 | 1.36 | 1.4 | 0.99 | 0.875 | 0.339 | 1.11 | 0.983 | 0.981 | 0.985 | 1.02
PC-3 [JPC-3] | 0.647 | 0.645 | 0.53 | 0.525 | 0.255 | 0.747 | 1.5 | 0.918 | 0.94 | 0.613 | 0.809 | 0.803 | 0.662 | 0.65 | 0.439 | 0.968 | 0.875 | 0.946 | 0.9 | 0.937
PC-14 | 0.154 | 0.154 | 0.172 | 0.108 | 0.151 | 0.153 | 0.131 | 0.154 | 0.154 | 0.0792 | 0.805 | 0.592 | 0.609 | 0.623 | 0.116 | 0.939 | 0.978 | 0.926 | 0.966 | 0.692
RERF-LC-KJ | 1.1 | 1.55 | 0.828 | 0.959 | 0.417 | 0.482 | 0.496 | 0.417 | 0.455 | 0.351 | 0.525 | 0.577 | 0.491 | 0.461 | 0.315 | 1.02 | 0.82 | 0.857 | 0.896 | 0.905
SK-LU-1 | 0.206 | 0.22 | 0.177 | 0.203 | 0.215 | 1 | 0.802 | 0.476 | 0.457 | 0.284 | 0.296 | 0.255 | 0.211 | 0.295 | 0.181 | 1.19 | 1.07 | 1.11 | 0.681 | 0.425
SK-MES-1 | 0.714 | 0.619 | 0.391 | 0.229 | 0.261 | 0.982 | 0.918 | 0.506 | 0.413 | 0.26 | 0.536 | 0.486 | 0.407 | 0.342 | 0.151 | 1.17 | 0.985 | 1.01 | 0.859 | 0.634
SW 1573 | 0.218 | 0.236 | 0.182 | 0.315 | 0.131 | 1.03 | 0.86 | 0.666 | 0.303 | 0.119 | 0.67 | 0.561 | 0.482 | 0.449 | 0.131 | 1.03 | 0.881 | 0.807 | 0.802 | 0.643
